Reference: patent publication US20210355104A1, “ADENOSINE RECEPTOR BINDING COMPOUNDS” (Nikang Therapeuticsm Inc., priority 2018, published 2021)
Values joined by “and” are separate entries in the source; they are usually repeats but may differ in a detail not shown here. Equal values may be shown once.

Target: Adenosine A2A receptor (Homo sapiens, UniProt P29274)
Experiment: Adenosine A2A receptor competitive binding assay (Tag-lite HTRF)
Details: Tag-lite adenosine A2A receptor ligand binding, 2 h room temperature; values separated by / are repeat determinations
Protocol: Adenosine A2A Receptor Competitive Binding Assay
The Tag-lite adenosine A2A receptor ligand binding assay is a homogeneous alternative to radioligand binding assay and developed by Cisbio (Bedford, Mass.). We carried out this assay following Cisbio's instructions with minor modification. Pre-transfected, fluorescent donor-labelled cells (Cisbio Cat#: C1TT1A2A, 200 testes) was stored at −80° C. and thawed right before use. Cells were washed once with 5 ml TLB and gently resuspended in 2 ml TLB. 4 μl suspended cells was dispensed into each well of white low-volume 384-well plate (Greiner Bio-One). Serial dilutions of compounds were prepared in Tag-lite buffer (TLB, Cisbio Cat #: LABMED) to a DMSO concentration of 0.6%. After adding 4 μl of compound dilutions to each well, 4 μl60 nM Adenosine A2A receptor red antagonist fluorescent ligand (Cisbio Cat #: L0058RED) was dispensed to each well. The 384-well assay plate was centrifuged briefly and incubated at room temperature for 2 h. HTRF signals were measured using CIARIOstar plate reader (BMG Labtech).

Adenosine A2A receptor, sequence (P29274 whole entry): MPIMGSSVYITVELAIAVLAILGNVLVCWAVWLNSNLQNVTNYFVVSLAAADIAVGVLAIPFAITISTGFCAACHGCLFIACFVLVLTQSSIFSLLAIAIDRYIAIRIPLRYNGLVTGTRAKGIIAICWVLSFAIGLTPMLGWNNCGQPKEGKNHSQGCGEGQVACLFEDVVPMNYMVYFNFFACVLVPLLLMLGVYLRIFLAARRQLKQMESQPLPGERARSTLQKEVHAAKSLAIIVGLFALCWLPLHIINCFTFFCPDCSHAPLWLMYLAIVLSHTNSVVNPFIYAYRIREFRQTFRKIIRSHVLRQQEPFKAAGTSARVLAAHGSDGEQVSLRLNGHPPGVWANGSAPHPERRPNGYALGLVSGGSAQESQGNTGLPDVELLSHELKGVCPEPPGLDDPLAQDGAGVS

Row | SMILES | IC50
1 | Cc1cc(-c2c(CO)nc(N)nc2-c2ccccc2)cc(C(F)(F)F)n1 [Example 19, (2-amino-5-(2-methyl-6-(trifluoromethyl)pyridin-4-yl)-6-phenylpyrimidin-4-yl)methanol] | 0.052 µM
2 | CCN(CC)C(=O)CN(C)c1nc(N)nc(-c2ccccc2)c1-c1cc(C)nc(C(F)(F)F)c1 [Example 38, 2-((2-amino-5-(2-methyl-6-(trifluoromethyl)pyridin-4-yl)-6-phenylpyrimidin-4-yl)(methyl)amino)-N,N-diethylacetamide] | 0.816 µM
3 | Cc1cc(-c2c(OCC(=O)Nc3ccccn3)nc(N)nc2-c2ccc(F)cc2)cc(C(F)F)n1 [Example 107, 2-((2-amino-5-(2-(difluoromethyl)-6-methylpyridin-4-yl)-6-(4-fluorophenyl)pyrimidin-4-yl)oxy)-N-(pyridin-2-yl)acetamide] | 0.044 µM
4 | Cc1cc(-c2c(OCC(=O)NC3CCOCC3)nc(N)nc2-c2ccc(F)cc2)cc(C(F)F)n1 [Example 40, 2-((2-amino-5-(2-(difluoromethyl)-6-methylpyridin-4-yl)-6-(4-fluorophenyl)pyrimidin-4-yl)oxy)-N-(tetrahydro-2H-pyran-4-yl)acetamide] | 0.295 µM
5 | Cc1cc(-c2c(C(=O)NCc3cccc(C(C)C)n3)nc(N)nc2-c2ccc(F)cc2)cc(C(F)F)n1 [Example 108, 2-amino-5-(2-(difluoromethyl)-6-methylpyridin-4-yl)-6-(4-fluorophenyl)-N-((6-isopropylpyridin-2-yl)methyl)pyrimidine-4-carboxamide] | 0.222 µM
6 | CC(=O)N1CCN(c2ccc(CCOc3nc(N)nc(-c4ccccc4)c3-c3cc(C)nc(C(F)(F)F)c3)cc2)CC1 [Example 20, 1-(4-(4-(2-((2-amino-5-(2-methyl-6-(trifluoromethyl)pyridin-4-yl)-6-phenylpyrimidin-4-yl)oxy)ethyl)phenyl)piperazin-1-yl)ethan-1-one] | 0.0266 µM
7 | Cc1cc(-c2c(OCCc3ccc(C#N)cc3)nc(N)nc2-c2ccc(F)cc2)cc(C(F)F)n1 [Example 93, 4-(2-((2-amino-5-(2-(difluoromethyl)-6-methylpyridin-4-yl)-6-(4-fluorophenyl)pyrimidin-4-yl)oxy)ethyl)benzonitrile] | 0.133 µM
8 | Cc1cc(-c2c(OCCc3ccc(N4CCN(S(C)(=O)=O)CC4)cc3)nc(N)nc2-c2ccc(F)cc2)cc(C(F)F)n1 [Example 58, 5-(2-(difluoromethyl)-6-methylpyridin-4-yl)-4-(4-fluorophenyl)-6-(4-(4-(methylsulfonyl)piperazin-1-yl)phenethoxy)pyrimidin-2-amine] | 0.028 µM
9 | Cc1cc(-c2c(C(=O)NC3CCCc4cccnc43)nc(N)nc2-c2ccc(F)cc2)cc(C(F)F)n1 (stereo not drawn) [Example 100, 2-amino-5-(2-(difluoromethyl)-6-methylpyridin-4-yl)-6-(4-fluorophenyl)-N-(5,6,7,8-tetrahydroquinolin-8-yl)pyrimidine-4-carboxamide] | 0.066 µM
10 | CCN(CC)C(=O)COc1nc(N)nc(-c2ccc(F)cc2)c1-c1cc(C)nc(C(F)(F)F)c1 [Example 27, 2-[[2-amino-6-(4-fluorophenyl)-5-[2-methyl-6-(trifluoromethyl)pyridin-4-yl]pyrimidin-4-yl]oxy]-N,N-diethylacetamide] | 0.0159 µM
11 | Cc1cc(-c2c(CNCC(F)(F)F)nc(N)nc2-c2ccccc2)cc(C(F)(F)F)n1 [Example 24, 5-(2-methyl-6-(trifluoromethyl)pyridin-4-yl)-4-phenyl-6-(((2,2,2-trifluoroethyl)amino)methyl)pyrimidin-2-amine] | 0.118 µM
12 | CC(=O)N1CCC(Oc2ccc(CCOc3nc(N)nc(-c4ccccc4)c3-c3cc(C)nc(C(F)(F)F)c3)cc2)C1 (stereo not drawn) [Example 25, 1-(3-(4-(2-((2-amino-5-(2-methyl-6-(trifluoromethyl)pyridin-4-yl)-6-phenylpyrimidin-4-yl)oxy)ethyl)phenoxy)pyrrolidin-1-yl)ethan-1-one] | 0.032 µM
13 | Cc1cc(-c2c(OCC(O)C(C)(C)O)nc(N)nc2-c2ccc(F)cc2)cc(C(F)F)n1 (stereo not drawn) [Example 91, 1-((2-amino-5-(2-(difluoromethyl)-6-methylpyridin-4-yl)-6-(4-fluorophenyl)pyrimidin-4-yl)oxy)-3-methylbutane-2,3-diol] | > 1 µM
14 | Cc1cc(-c2c(OCC(=O)NC3CC3)nc(N)nc2-c2ccc(F)cc2)cc(C(F)F)n1 [Example 42, 2-((2-amino-5-(2-(difluoromethyl)-6-methylpyridin-4-yl)-6-(4-fluorophenyl)pyrimidin-4-yl)oxy)-N-cyclopropylacetamide] | 0.0052 µM
15 | Cc1cc(-c2c(OCCc3ccc(N4CCC(=O)CC4)cc3)nc(N)nc2-c2ccccc2)cc(C(F)(F)F)n1 [Example 26, 1-(4-(2-((2-amino-5-(2-methyl-6-(trifluoromethyl)pyridin-4-yl)-6-phenylpyrimidin-4-yl)oxy)ethyl)phenyl)piperidin-4-one] | 0.043 µM and 0.0268 µM
16 | Cc1cc(-c2c(OCC3(O)CCOCC3)nc(N)nc2-c2ccc(F)cc2)cc(C(F)F)n1 [Example 104, 4-(((2-amino-5-(2-(difluoromethyl)-6-methylpyridin-4-yl)-6-(4-fluorophenyl)pyrimidin-4-yl)oxy)methyl)tetrahydro-2H-pyran-4-ol] | > 1 µM
17 | Cc1cc(-c2c(OCCN3CCOCC3)nc(N)nc2-c2ccc(F)cc2)cc(C(F)F)n1 [Example 36, 5-(2-(difluoromethyl)-6-methylpyridin-4-yl)-4-(4-fluorophenyl)-6-(2-morpholinoethoxy)pyrimidin-2-amine] | 0.0114 µM
18 | Cc1cc(-c2c(Oc3ccccc3)nc(N)nc2-c2ccc(F)cc2)cc(C(F)F)n1 [Example 47, 5-(2-(difluoromethyl)-6-methylpyridin-4-yl)-4-(4-fluorophenyl)-6-phenoxypyrimidin-2-amine] | 0.0213 µM
19 | COC(=O)Nc1ccc(CCOc2nc(N)nc(-c3ccc(F)cc3)c2-c2cc(C)nc(C(F)F)c2)cc1 [Example 72, Methyl(4-(2-((2-amino-5-(2-(difluoromethyl)-6-methylpyridin-4-yl)-6-(4-fluorophenyl)pyrimidin-4-yl)oxy)ethyl)phenyl)carbamate] | 0.041 µM
20 | Cc1cc(-c2c(OCC(=O)NC3CCN(C)CC3)nc(N)nc2-c2ccc(F)cc2)cc(C(F)F)n1 [Example 44, 2-((2-amino-5-(2-(difluoromethyl)-6-methylpyridin-4-yl)-6-(4-fluorophenyl)pyrimidin-4-yl)oxy)-N-(1-methylpiperidin-4-yl)acetamide] | 1.21 µM
21 | Cc1cc(-c2c(OCC(=O)NCCCS(C)(=O)=O)nc(N)nc2-c2ccc(F)cc2)cc(C(F)F)n1 [Example 50, 2-((2-amino-5-(2-(difluoromethyl)-6-methylpyridin-4-yl)-6-(4-fluorophenyl)pyrimidin-4-yl)oxy)-N-(3-(methylsulfonyl)propyl)acetamide] | 0.535 µM
22 | Cc1cc(-c2c(CN(C)C)nc(N)nc2-c2ccccc2)cc(C(F)(F)F)n1 [Example 23, 4-((dimethylamino)methyl)-5-(2-methyl-6-(trifluoromethyl)pyridin-4-yl)-6-phenylpyrimidin-2-amine] | 1.78 µM
23 | CCN(CC)C(=O)OCc1nc(N)nc(-c2ccccc2)c1-c1cc(C)nc(C(F)(F)F)c1 [Example 21, (2-amino-5-(2-methyl-6-(trifluoromethyl)pyridin-4-yl)-6-phenylpyrimidin-4-yl)methyl diethylcarbamate] | 0.111 µM
24 | Cc1cc(-c2c(OCc3nccn3C3CCOCC3)nc(N)nc2-c2ccc(F)cc2)cc(C(F)F)n1 [Example 172, 5-(2-(difluoromethyl)-6-methylpyridin-4-yl)-4-(4-fluorophenyl)-6-((1-(tetrahydro-2H-pyran-4-yl)-1H-imidazol-2-yl)methoxy)pyrimidin-2-amine] | 0.165 µM
25 | Cc1cc(-c2c(OCC3CCN(S(C)(=O)=O)CC3)nc(N)nc2-c2ccc(F)cc2)cc(C(F)F)n1 [Example 96, 5-(2-(difluoromethyl)-6-methylpyridin-4-yl)-4-(4-fluorophenyl)-6-((1-(methylsulfonyl)piperidin-4-yl)methoxy)pyrimidin-2-amine] | 0.061 µM
26 | Cc1cc(-c2c(OCC(=O)NCCN(C)C)nc(N)nc2-c2ccc(F)cc2)cc(C(F)F)n1 [Example 43, 2-((2-amino-5-(2-(difluoromethyl)-6-methylpyridin-4-yl)-6-(4-fluorophenyl)pyrimidin-4-yl)oxy)-N-(2-(dimethylamino)ethyl)acetamide] | 0.266 µM
27 | CNCc1nc(N)nc(-c2ccccc2)c1-c1cc(C)nc(C(F)(F)F)c1 [Example 22, 5-(2-methyl-6-(trifluoromethyl)pyridin-4-yl)-4-((methylamino)methyl)-6-phenylpyrimidin-2-amine] | 1.78 µM

Same assay, conditions: Tag-lite adenosine A2A receptor ligand binding, HTRF

Row | SMILES | IC50 [µM]
28 | CCn1cnnc1COc1nc(N)nc(-c2ccc(F)cc2)c1-c1cc(C)nc(C(F)F)c1 [Example 222, 5-(2-(difluoromethyl)-6-methylpyridin-4-yl)-4-((4-ethyl-4H-1,2,4-triazol-3-yl)methoxy)-6-(4-fluorophenyl)pyrimidin-2-amine] | 0.015
29 | CCc1nnn(C)c1COc1nc(N)nc(-c2ccc(F)cc2)c1-c1cc(C)nc(C(F)F)c1 [Example 200, 5-(2-(difluoromethyl)-6-methylpyridin-4-yl)-4-((4-ethyl-1-methyl-1H-1,2,3-triazol-5-yl)methoxy)-6-(4-fluorophenyl)pyrimidin-2-amine] | 0.013
30 | Cc1cc(-c2c(OCc3nnn(CC4CC4)n3)nc(N)nc2-c2ccc(F)cc2)cc(C(F)F)n1 [Example 220, 4-((2-(cyclopropylmethyl)-2H-tetrazol-5-yl)methoxy)-5-(2-(difluoromethyl)-6-methylpyridin-4-yl)-6-(4-fluorophenyl)pyrimidin-2-amine] | 0.014
